Data from ChEMBL document CHEMBL1201862, “PubChem BioAssay data set” (2004).
Counter-ions that a name gives are not always drawn.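 All cell lines were grown in 96-well plates and treated with compound for 48 hours. GI50: concentration for 50% inhibition of growth.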 Activity calls are given as the source filed them. No stated cut-off is given here; in the data, active = GI50 up to about 1.1 µM and inactive = higher.

Tests used:
Assay in all cases: inhibition of tumour cell growth, NCI panel, 48 h
[1] = system: LOX IMVI
[2] = system: OVCAR-5
[3] = system: A498
[4] = system: PC-3
[5] = system: M14
[6] = system: HOP-92
[7] = system: OVCAR-4
[8] = system: SK-MEL-28
[9] = system: SF-539
[10] = system: HL-60
[11] = system: UACC-257
[12] = system: Malme-3M
[13] = system: OVCAR-8
[14] = system: U-251
[15] = system: SR
[16] = system: MOLT-4
[17] = system: 786-0
[18] = system: CAKI-1
[19] = system: NCI-H23
[20] = system: SNB-75

SMILES	GI50 [1]	GI50 [2]	GI50 [3]	GI50 [4]	GI50 [5]	GI50 [6]	GI50 [7]	GI50 [8]	GI50 [9]	GI50 [10]	GI50 [11]	GI50 [12]	GI50 [13]	GI50 [14]	GI50 [15]	GI50 [16]	GI50 [17]	GI50 [18]	GI50 [19]	GI50 [20]
CCCc1cn2c(/C=N/NC(=N)N)c(-c3ccc([N+](=O)[O-])cc3)nc2s1	1.39 µM (inactive)	1.71 µM (inactive)	5.26 µM (inactive)	2.01 µM (inactive)	1.93 µM (inactive)	6.01 µM (inactive)	1.06 µM (active)	1.85 µM (inactive)	4.88 µM (inactive)	0.45 µM (active)	1.73 µM (inactive)	2.5 µM (inactive)	1.9 µM (inactive)	0.769 µM (active)	0.245 µM (active)	0.231 µM (active)	0.853 µM (active)	1.69 µM (inactive)	1.61 µM (inactive)	1.8 µM (inactive)
CC(=O)c1cc2c(s1)C(=O)c1ccccc1C2=O	0.346 µM (active)	5.25 µM (inactive)	29.3 µM (inactive)	3.24 µM (inactive)	0.557 µM (active)	4.18 µM (inactive)	3.52 µM (inactive)	8.05 µM (inactive)	1.44 µM (inactive)	2.13 µM (inactive)	1.57 µM (inactive)	1.28 µM (inactive)	1.74 µM (inactive)	2.37 µM (inactive)	5.66 µM (inactive)	2.48 µM (inactive)	5.93 µM (inactive)	9.53 µM (inactive)	0.457 µM (active)	2.4 µM (inactive)
NC(=O)NC1NC(=O)NC1=O (stereo not given) [ALLANTOIN]	> 100 µM (inactive)	> 100 µM (inactive)	> 100 µM (inactive)	> 100 µM (inactive)	> 100 µM (inactive)	> 100 µM (inactive)	> 100 µM (inactive)	> 100 µM (inactive)	> 100 µM (inactive)	> 100 µM (inactive)	> 100 µM (inactive)	> 100 µM (inactive)	> 100 µM (inactive)	> 100 µM (inactive)	> 100 µM (inactive)	> 100 µM (inactive)	> 100 µM (inactive)	> 100 µM (inactive)	> 100 µM (inactive)	> 100 µM (inactive)
CN1CCC(CN2c3ccccc3Sc3ccccc32)C1 (stereo not given) [METHDILAZINE HYDROCHLORIDE]	15 µM (inactive)	16.7 µM (inactive)	13.1 µM (inactive)	12.4 µM (inactive)	10.5 µM (inactive)	12.8 µM (inactive)	13.9 µM (inactive)	6.44 µM (inactive)	16.8 µM (inactive)	14.7 µM (inactive)	11.8 µM (inactive)	16.5 µM (inactive)	16.5 µM (inactive)	13.7 µM (inactive)	2.7 µM (inactive)	16.3 µM (inactive)	14.7 µM (inactive)	14.7 µM (inactive)	20.3 µM (inactive)	1.79 µM (inactive)
